Key:
[1] = test system: intestinal flora metabolism; assay: Targeted metabolomics (LC-MS/MS, VIP analysis) of feces of chronic stress (CUMS) depression model rats; details: 7 mg/kg/d intragastric, 7 days, compared with the depression group
Description: 32 healthy male SD rats, weighing 180-220 g, are randomly divided into a blank control group (Control), a model group (CUMS), a fluoxetine group (FLX), and an albiflorin group (Albiflorin), with 8 in each group.
Except for the blank control group, all groups receive randomly designed stress stimulation, and are then administrated intragastrically with fluoxetine (10 mg/kg/d) and albiflorin (7 mg/kg/d) for 7 consecutive days in terms of 1.0 mL/100 g body weight after 29 days of stress stimulation, while the corresponding stress stimulation is continued in the course of administration. All drugs are prepared into solutions or suspensions with physiological saline before use, and dissolved by ultrasonic waves.
After 7 days of administration, the administration ends, and 24 hours later, behavioral tests are performed. After the tests, the animals are anesthetized and sacrificed. The plasma, hippocampal tissues, and feces of the animals are collected separately, and preserved for later use by using appropriate methods according to the experimental requirements. […]
The metabolite extract is taken, dissolved in 100 μl mobile phase, and the main metabolites in the sample are determined by LC-MS/MS (Shimadzu LC-20AD-Qtrap 5500 tandem mass spectrometer (SCIEX, USA)). […]
The obtained chromatographic peak information (Wiff file) is imported into Multiquant 3.0 (SCIEX, USA), and the obtained chromatographic peaks are area-integrated and checked manually. […] The analyzed data is imported into Metaboanalyst for multivariate analysis (PLS-DA, OPLS-DA and VIP analysis), metabolic pathways analysis and correlation analysis.

[2] = test system: erythropoietin EPO; assay: Hypoxia tolerance experiment; type: in vivo; details: hypoxic state of the body
[3] = test system: intestinal flora; assay: Intestinal flora function and structure in CUMS rats (metabolomics, 16sDNA high-throughput metagenomic sequencing); details: 7 days
[4] = test system: IL-6; assay: IL-6 content in plasma of acute stress model mice (ELISA); type: in vivo, ICR mice
[5] = test system: SphK1; assay: SphK1 in hippocampus of chronic stress rats, Western Blot; set-up: SphK1 in the hippocampus (in words): dose or concentration left out as unconfirmed; details: for SphK1: hippocampus of chronic stress rats, blank control 1.0, model 1.1
[6] = test system: IDO1; assay: IDO1 in hippocampus of chronic stress rats, Western Blot; set-up: secretion of IDO1 in the hippocampus (in words): dose or concentration left out as unconfirmed; details: 7 days; for IDO1: hippocampus of chronic stress rats, blank control 1.0, model 1.0
[7] = test system: cPLA2; assay: cPLA2 in hippocampus of chronic unpredictable mild stress (CUMS) rats; details: 7 days, 7 mg/kg, FIG. 10
[8] = test system: SphK2; assay: SphK2 in hippocampus of chronic stress rats, Western Blot; set-up: SphK2 in the hippocampus (in words): dose or concentration left out as unconfirmed; details: for SphK2: hippocampus of chronic stress rats, blank control 1.0, model 1.8
[9] = compared with the depression group, VIP analysis, FIG. 15

C[C@]12C[C@@H](O)[C@@H]3C[C@@]1(O[C@@H]1O[C@H](CO)[C@@H](O)[C@H](O)[C@H]1O)[C@@]3(COC(=O)c1ccccc1)C(=O)O2 [Albiflorin]
overall metabolism of intestinal flora ([1]; CUMS rats, VIP analysis, FIG. 6): significantly improved | amino acid and vitamin content ([1]; feces of CUMS rats): increase | bile acid content ([1]; feces of CUMS rats): increase | level of erythropoietin EPO [2]: increase | flora structure compared with the blank control group (cluster analysis) ([3]; 7 mg/kg/d, P>0.05, FIG. 14): without any statistical difference | content of beneficial bacteria Firmicutes, especially lactic acid bacteria ([3]; 7 mg/kg/d, compared with the stress rat model group, FIG. 14): significant increase | content of bile acids and content of amino acids and vitamins [3, 9]: increase | overall metabolism of intestinal flora [3, 9]: significantly improved | secretion of IL-6 ([4]; 8 mg/kg intragastric, P<0.01, FIG. 8): most significant inhibitory effect | secretion of IL-6 ([4]; low dose range, intragastric, 2 days, FIG. 8): certain inhibitory effect | secretion of IL-6 ([4]; with the increase of the administration dose (up to 128 mg/kg), FIG. 8): secretion of IL-6 is promoted obviously | SphK1 in the hippocampus (in words) ([5]; CUMS rats, 7 days, P<0.01): significantly decreased | SphK1 ([5]; 3.5 mg/kg, 7 days): 1.2 ± 0.009 | SphK1 ([5]; 7 mg/kg, 7 days): 0.7 ± 0.004 | SphK1 ([5]; 14 mg/kg, 7 days): 0.5 ± 0.001 | secretion of IDO1 in the hippocampus (in words) ([6]; CUMS rats, P<0.01): significantly inhibited | IDO1 ([6]; 7 mg/kg): 0.8 ± 0.007 | IDO1 ([6]; 14 mg/kg): 0.7 ± 0.007 | increase of cPLA2 in the hippocampus [7]: inhibit the increase of cPLA2 | SphK2 in the hippocampus (in words) ([8]; CUMS rats, 7 days, P<0.01): significantly decreased | SphK2 ([8]; 3.5 mg/kg, 7 days): 2.2 ± 0.016 | SphK2 ([8]; 7 mg/kg, 7 days): 1.6 ± 0.010 | SphK2 ([8]; 14 mg/kg, 7 days): 2.1 ± 0.015

CNCCC(Oc1ccc(C(F)(F)F)cc1)c1ccccc1 (stereo not drawn) [Fluoxetine, fluoxetine, reference compound]
SphK1 ([5]; fluoxetine group): 1.5 ± 0.009 | SphK2 ([8]; fluoxetine group): 2.1 ± 0.016

C[C@@]12C[C@@]3(O)O[C@@H](O1)[C@]1(COC(=O)c4ccccc4)[C@H]3C[C@@]12O[C@@H]1O[C@H](CO)[C@@H](O)[C@H](O)[C@H]1O [Paeoniflorin, reference compound]
secretion of IL-6 in the blood ([4]; 4 mg/kg and 8 mg/kg intragastric, P<0.05, FIG. 7): most significant inhibitory effect | secretion of IL-6 in the blood ([4]; dose range 4, 8, 16, 32, 64 and 128 mg/kg intragastric, 2 days, FIG. 7): certain inhibitory effect

Source: patent US20230095701A1, “Use of Albiflorin in Treatment of Coronavirus Pneumonia” (priority 2020, published 2023)
